Patent US8119633B2, “Substituted sulfonamide compounds” (Gruenenthal GmbH, priority 2007, dated 2012)
Read-outs that look alike come from different tables or passages of the source.

Legend:
[1] = target: T1, bradykinin receptor 1 (B1R) of the rat (Rattus norvegicus, UniProt P97583); assay: Functional study on the bradykinin receptor 1 (B1R), rat: FLIPR Ca2+ influx assay; assay type: cell-based
T1 construct: expressed in transfected cells; host or cells: CHO K1 cells
T1 sequence (P97583 1-337): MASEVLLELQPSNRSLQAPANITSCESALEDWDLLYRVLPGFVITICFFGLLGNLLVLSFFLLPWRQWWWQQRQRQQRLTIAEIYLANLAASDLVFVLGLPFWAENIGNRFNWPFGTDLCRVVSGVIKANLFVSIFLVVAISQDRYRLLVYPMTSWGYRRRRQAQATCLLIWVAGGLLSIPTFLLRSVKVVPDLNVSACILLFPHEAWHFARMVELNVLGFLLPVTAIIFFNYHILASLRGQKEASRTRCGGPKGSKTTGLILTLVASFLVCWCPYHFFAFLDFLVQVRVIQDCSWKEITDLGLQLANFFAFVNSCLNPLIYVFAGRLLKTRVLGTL
Procedure, shortened: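 CHO K1 cells stably expressing rat B1R, Fluo-4-loaded, read on FLIPR (ex 488/em 540 nm, peak fluorescence). Test substances added first (agonism vs 10 μM Des-Arg9-bradykinin), then after 10-20 min Des-Arg9-bradykinin at EC80; % inhibition and IC50 from concentration series, n=2-3, N≥2.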

human μ-opiate receptor = target: T2, human μ-opiate receptor (Homo sapiens, UniProt P35372); assay: Affinity for the human μ-opiate receptor ([3H]-naloxone displacement, SPA); details: test substance 1 μmol/l, inhibition of specific [3H]-naloxone binding, CHO-K1 receptor membrane preparation; for inhibition at 1 µM: read-out: μ-Opioid receptor [1 μM] % inhibition
T2 construct: purchased PerkinElmer Life Sciences, Zaventem, Belgium RB-HOM; host or cells: CHO-K1 cells (membrane preparation)
Method: Studies of the Effectiveness of the Compounds According to the Invention Method for determining the affinity for the human μ-opiate receptor
The receptor affinity for the human μ-opiate receptor is determined in a homogeneous batch on microtitre plates. To this end, serial dilutions of the substances to be tested are incubated for 90 minutes at room temperature with a receptor membrane preparation (15-40 μg of protein/250 μl of incubation batch) of CHO-K1 cells, which express the human μ-opiate receptor (RB-HOM receptor membrane preparation from PerkinElmer Life Sciences, Zaventem, Belgium), in the presence of 1 nmol/l of the radioactive ligand [^3H]-naloxone (NET719, PerkinElmer Life Sciences, Zaventem, Belgium) and 1 mg of WGA-SPA beads (wheatgerm agglutinin SPA beads from Amersham/Pharmacia, Freiburg, Germany) in a total volume of 250 μl. The incubation buffer used is 50 mmol/l of Tris-HCl supplemented with 0.06 wt. % bovine serum albumin. In order to determine non-specific binding, 100 μmol/l of naloxone is additionally added. When the ninety-minute incubation time has ended, the microtitre plates are centrifuged off for 20 minutes at 1000 g and the radioactivity is measured in a β-counter (Microbeta-Trilux, PerkinElmer Wallac, Freiburg, Germany). The percentage displacement of the radioactive ligand from its binding to the human μ-opiate receptor at a concentration of the test substances of 1 μmol/l is determined and stated as the percentage inhibition of specific binding. On the basis of the percentage displacement by different concentrations of the test substances, IC50 inhibitory concentrations, which effect 50% displacement of the radioactive ligand, are calculated. Ki values for the test substances are obtained by conversion by means of the Cheng-Prusoff equation.

[2] = target: T3, human bradykinin receptor 1 (B1R) (Homo sapiens, UniProt P46663); assay: Functional study on the bradykinin receptor 1 (B1R), human: FLIPR Ca2+ influx assay; assay type: cell-based
T3 construct: expressed in transfected cells; host or cells: CHO K1 cells
T3 sequence (P46663 1-353): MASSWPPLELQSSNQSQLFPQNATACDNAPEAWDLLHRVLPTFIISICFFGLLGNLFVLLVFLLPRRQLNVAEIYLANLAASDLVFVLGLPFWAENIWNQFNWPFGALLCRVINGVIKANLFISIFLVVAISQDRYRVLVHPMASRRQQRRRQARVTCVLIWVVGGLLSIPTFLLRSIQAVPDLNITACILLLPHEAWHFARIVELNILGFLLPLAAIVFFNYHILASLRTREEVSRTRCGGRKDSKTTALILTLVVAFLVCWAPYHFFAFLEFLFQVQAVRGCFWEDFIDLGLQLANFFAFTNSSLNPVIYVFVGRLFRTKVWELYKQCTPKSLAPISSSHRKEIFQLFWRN
Procedure, shortened: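 CHO K1 cells stably expressing human B1R were loaded with Fluo-4, and Ca2+ fluorescence was read on FLIPR (ex 488/em 540 nm). Compound was added first (10 μM for % activation against Lys-Des-Arg9-bradykinin ≥0.5 nM). After 10-20 min, Lys-Des-Arg9-bradykinin was added at EC80 for % inhibition; IC50 came from concentration series, n=2-3, N≥2.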

[3] = test substance 10 μM, CHO K1 cells transfected with rat B1R, Des-Arg9-bradykinin at EC80, Ca2+ influx (Fluo-4, FLIPR)
[4] = test substance 10 μM, CHO K1 cells transfected with human B1R, Lys-Des-Arg9-bradykinin at EC80, Ca2+ influx (Fluo-4, FLIPR)
[5] = test substance 10 μM, CHO K1 cells transfected with rat B1R, Des-Arg9-bradykinin at EC80, Ca2+ influx (Fluo-4, FLIPR), read-out: B1R antagonism, rat [10 μM] % inhibition
[6] = test substance 10 μM, CHO K1 cells transfected with human B1R, Lys-Des-Arg9-bradykinin at EC80, Ca2+ influx (Fluo-4, FLIPR), read-out: B1R antagonism, human [10 μM] % inhibition

T2 sequence (P35372 whole entry): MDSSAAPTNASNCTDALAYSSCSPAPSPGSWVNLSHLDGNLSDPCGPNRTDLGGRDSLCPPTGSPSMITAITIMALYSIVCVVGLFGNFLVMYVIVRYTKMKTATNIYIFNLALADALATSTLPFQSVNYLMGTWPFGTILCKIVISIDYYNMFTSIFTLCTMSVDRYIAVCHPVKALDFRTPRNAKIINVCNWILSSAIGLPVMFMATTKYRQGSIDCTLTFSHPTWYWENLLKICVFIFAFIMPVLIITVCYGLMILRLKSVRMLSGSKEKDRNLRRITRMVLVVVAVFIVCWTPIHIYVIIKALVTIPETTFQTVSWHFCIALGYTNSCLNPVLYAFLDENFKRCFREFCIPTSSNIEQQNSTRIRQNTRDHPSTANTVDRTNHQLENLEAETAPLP

| Molecule | inhibition at 10 µM [1, 5] [%] | inhibition at 10 µM [2, 6] [%] | other results |
| --- | --- | --- | --- |
| 1-(4-(1-(4-methylpiperazin-1-yl)-3-phenylpropyl)piperidin-1-yl)-2-(1-(3-(trifluoromethyl)phenylsulfonyl)piperidin-2-yl)ethanone [Example 112] |  |  | B1R antagonism, rat [10 μM] % inhibition [1, 3]: 61%; μ-Opioid receptor [1 μM] % inhibition (human μ-opiate receptor): 28%; B1R antagonism, human [10 μM] % inhibition [2, 4]: 90% |
| 3-(1-(4-chloro-2,5-dimethylphenylsulfonyl)piperidin-2-yl)-1-(4-((4-methyl-piperazin-1-yl)(phenyl)methyl)piperidin-1-yl)propan-1-one [Example 122] |  |  | B1R antagonism, rat [10 μM] % inhibition [1, 3]: 40%; μ-Opioid receptor [1 μM] % inhibition (human μ-opiate receptor): 47%; B1R antagonism, human [10 μM] % inhibition [2, 4]: 98% |
| 4-(Dimethylaminophenylmethyl)piperidin-1-carboxylic acid {3-[(4-methoxy-2,3,6-trimethylbenzenesulfonyl)methylamino]propyl}amide [Example 4] |  |  | B1R antagonism, rat [10 μM] % inhibition [1, 3]: 95%; μ-Opioid receptor [1 μM] % inhibition (human μ-opiate receptor): 100%; B1R antagonism, human [10 μM] % inhibition [2, 4]: 54.8% |
| COc1cc(C)c(S(=O)(=O)N(C)CCCNC(=O)NC2CCC(C(c3ccccc3)N(C)C)CC2)c(C)c1C (centres unmarked) [Example 1, N—(3-{3-[4-(Dimethylaminophenylmethyl)cyclohexyl]ureido}propyl)-4-methoxy-2,3,6,N-tetramethylbenzenesulfonamide] | 56 | 71.5 | inhibition at 1 µM (human μ-opiate receptor): 94% |
| COc1cc(C)c(S(=O)(=O)N(C)CCCNC(=O)NCC2CCC(C(c3ccccc3)N(C)C)CC2)c(C)c1C (centres unmarked) [Example 2] |  |  | B1R antagonism, rat [10 μM] % inhibition [1, 3]: 43%; μ-Opioid receptor [1 μM] % inhibition (human μ-opiate receptor): 97%; B1R antagonism, human [10 μM] % inhibition [2, 4]: 55.6% |
| COc1cc(C)c(S(=O)(=O)N(C)CCCNC(=O)NC2CCC(C(c3ccccc3)N3CCCC3)CC2)c(C)c1C (centres unmarked) [Example 3, 4-Methoxy-2,3,6,N-tetramethyl-N—(3-{3-[4-(phenylpyrrolidin-1-ylmethyl) -cyclohexyl]-ureido}propyl)benzenesulfonamide] | 58 | 80.8 | inhibition at 1 µM (human μ-opiate receptor): 71% |
| CN(C)C(c1ccc(Cl)cc1)C1CCC(CCNC(=O)c2ccccc2N(C)S(=O)(=O)c2ccc(Cl)c(Cl)c2)CC1 (centres unmarked) [Example 43, N-(2-{4-[(4-chloro-phenyl)-dimethylamino-methyl]-cyclohexyl}-ethyl)-2-[(3,4-dichloro-benzenesulfonyl)-methyl-amino]-benzamide] | 11 | 28.9 |  |
| CN(C)C(c1cccc(F)c1)C1CCC(CCNC(=O)c2ccccc2N(C)S(=O)(=O)c2ccc(Cl)c(Cl)c2)CC1 (centres unmarked) [Example 44, 2-[(3,4-dichloro-benzenesulfonyl)-methyl-amino]-N-(2-{4-[dimethylamino-(3-fluoro-phenyl)-methyl]-cyclohexyl}-ethyl)-benzamide] | 18 | 46.5 |  |
| CN(C)C(c1ccc(F)cc1)C1CCC(CCNC(=O)c2ccccc2N(C)S(=O)(=O)c2ccc(Cl)c(Cl)c2)CC1 (centres unmarked) [Example 45, 2-[(3,4-dichloro-benzenesulfonyl)-methyl-amino]-N-(2-{4-[dimethylamino-(4-fluoro-phenyl)-methyl]-cyclohexyl}-ethyl)-benzamide] | 26 | 75.7 |  |
| O=C1NCCN(S(=O)(=O)c2ccc(Cl)cc2Cl)C1CC(=O)N1CCC(C(c2ccccc2)N2CCOCC2)CC1 (centres unmarked) [Example 62, 4-(2,4-dichloro-benzenesulfonyl)-3-{2-[4-(morpholin-4-yl-phenyl-methyl)piperidin-1-yl]-2-oxo-ethyl}-piperazin-2-one] | 27 |  | inhibition at 1 µM (human μ-opiate receptor): 4% |
| CN(C)C(c1ccccc1)C1CCC(NC(=O)C2Cc3ccccc3N2S(=O)(=O)c2ccc(Cl)c(Cl)c2)CC1 (centres unmarked) [Example 91, 1-(3,4-dichlorophenylsulfonyl)-N-(4-((dimethylamino)(phenyl)methyl)cyclohexyl)indoline-2-carboxamide] |  |  | inhibition at 10 µM ([1]; CHO-K1, read-out: B1R antagonism, rat [10 μM] % inhibition): 8%; inhibition at 10 µM ([2]; CHO-K1, read-out: B1R antagonism, human [10 μM] % inhibition): 17.8% |
| CN(C)C(c1cccc(F)c1)C1CCC(NC(=O)C2Cc3ccccc3N2S(=O)(=O)c2ccc(Cl)c(Cl)c2)CC1 (centres unmarked) [Example 92, 1-(3,4-dichlorophenylsulfonyl)-N-(4-((dimethylamino)(3-fluorophenyl)methyl)cyclohexyl)indoline-2-carboxamide] | -13 | 26 |  |
| CN(C)C(CCc1ccccc1)C1CCC(NC(=O)C2Cc3ccccc3N2S(=O)(=O)c2ccc(Cl)c(Cl)c2)CC1 (centres unmarked) [Example 93, 1-(3,4-dichlorophenylsulfonyl)-N-(4-(1-(dimethylamino)-3-phenylpropyl)cyclohexyl)indoline-2-carboxamide] | -24 | 15.5 |  |
| CN(C)C(c1ccccc1)C1CCC(CNC(=O)C2Cc3ccccc3N2S(=O)(=O)c2ccc(Cl)c(Cl)c2)CC1 (centres unmarked) [Example 95, 1-(3,4-dichlorophenylsulfonyl)-N-((4-((dimethylamino)(phenyl)methyl)cyclohexyl)methyl)indoline-2-carboxamide] | -15 | 18.6 |  |
| CN(C)C(CCc1ccccc1)C1CCC(CCNC(=O)C2Cc3ccccc3N2S(=O)(=O)c2ccc(Cl)c(Cl)c2)CC1 (centres unmarked) [Example 97, 1-(3,4-dichlorophenylsulfonyl)-N-(2-(4-(1-(dimethylamino)-3-phenylpropyl)cyclohexyl)ethyl)indoline-2-carboxamide] | 11 | 16 |  |
| CN(C)C(c1ccccc1)C1CCC(CCNC(=O)Cc2ccccc2N(C)S(=O)(=O)c2ccc(Cl)c(Cl)c2)CC1 (centres unmarked) [Example 98, 2-(2-(3,4-dichloro-N-methylphenylsulfonamido)phenyl)-N-(2-(4-((dimethylamino)(phenyl)methyl)cyclohexyl)ethyl)acetamide] | -8 | 66.8 |  |
| CN(C)C(CCc1ccccc1)C1CCC(CCNC(=O)Cc2ccccc2N(C)S(=O)(=O)c2ccc(Cl)c(Cl)c2)CC1 (centres unmarked) [Example 99, 2-(2-(3,4-dichloro-N-methylphenylsulfonamido)phenyl)-N-(2-(4-(1-(dimethylamino)-3-phenylpropyl)cyclohexyl)ethyl)acetamide] | -7 | 83.3 |  |
| N-(3-(4-((4-fluorophenyl)(4-methylpiperazin-1-yl)methyl)piperidin-1-yl)-3-oxo-1-phenylpropyl)naphthalene-2-sulfonamide [Example 117] |  |  | μ-Opioid receptor [1 μM] % inhibition (human μ-opiate receptor): 47% |
